The structures appear in SMILES notation.

A short description of the data set: Acute toxicity on mice. Conditions: mouse, in vivo, po; ICR-slc male mice, 4 weeks old. The method, then: The compounds of Examples 4, 20 and 42 were tested for acute toxicity on mice^*.
On to `CON=C(C(=O)NC1C(=O)N2C(C(=O)OCC(C)=Cc3ccccc3)=CCS[C@H]12)c1csc(N)n1` (stereo partly drawn) [Example 4, 2-Methyl-3-phenyl-2-propenyl 7-[2-(2-amino-4-thiazolyl)-2-methoxyiminoacetamido]-3-cephem-4-carboxylate], for which the LD50 is more than 5000 mg/kg.
The compound `CON=C(C(=O)NC1C(=O)N2C(C(=O)OCC=C(C)C)=CCS[C@H]12)c1csc(N)n1` (stereo partly drawn) [Example 20, 3-Methyl-2-butenyl 7-[2-(2-amino-4-thiazolyl)-2-methoxyiminoacetamido]-3-cephem-4-carboxylate] had an LD50 of more than 5000 mg/kg.
In the case of `CC=C(C)COC(=O)C1=CCS[C@@H]2C(NC(=O)C(=NOC)c3csc(N)n3)C(=O)N12` (stereo partly drawn) [Example 42, 2-Methyl-2-butenyl 7-[2-(2-amino-4-thiazolyl)-2-methoxyiminoacetamido]-3-cephem-4-carboxylate] it was more than 5000 mg/kg.

A word on the LD50: it is the dose expected to kill half of the subjects tested. Read a high LD50 as a less toxic substance.

For the origin of these results see patent EP0108627A2, “Cephalosporin derivatives and process for producing the same” (SUMITOMO CHEMICAL COMPANY, LIMITED, priority 1982, dated 1984).
